Results published in US20240307382A1, “MODULATORS OF THE INTEGRATED STRESS PATHWAY” (Calico Life Sciences LLC, priority 2017, published 2024).

system: HEK293T cells carrying the ATF4 luciferase reporter; test: ATF4-Luc assay (ATF4 luciferase reporter, tunicamycin-treated cells); assay type: cell-based; details: Homo sapiens, HEK-293T, 1 μg/mL tunicamycin, 7 hours
Experimental: In order to test exemplary compounds of the invention in a cellular context, a stable VWMD cell line was first constructed. The ATF4 reporter was prepared by fusing the human full-length ATF4 5′-UTR (NCBI Accession No. BC022088.2) in front of the firefly luciferase (FLuc) coding sequence lacking the initiator methionine as described in Sidrauski et al (eLife 2013). The construct was used to produce recombinant retroviruses using standard methods and the resulting viral supermatant was used to transduce ITEK293T cells, which were then subsequently selected with puromycin to generate a stable cell line.
HTEK293T cells carrying the ATF4 luciferase reporter were plated on polylysine coated 384-well plates (Greiner Bio-one) at 30,000 cells per well. Cells were treated the next day with 1 μg/mL tunicamycin and 200 nM of a compound of Formula (I) for 7 hours. Luminescence was measured using One Glo (Promega) as specified by the manufacturer. Cells were maintained in DMEM with L-glutamine supplemented with 10% heat-inactivated FBS (Gibco) and Antibiotic-Antimycotic solution (Gibco).
Table 2 below summarizes the EC50 data obtained using the ATF4-Luc assay for exemplary compounds of the invention.

SMILES | EC50 [nM]
O=C(COc1ccc(Cl)c(F)c1)NC12CCC(NC(=O)c3ccc(OC(F)(F)F)cn3)(C1)C2 [Compound 297, N-{4-[2-(4-chloro-3-fluorophenoxy)acetamido]bicyclo[2.1.1]hexan-1-yl}-5-(trifluoromethoxy)pyridine-2-carboxamide] | < 50
O=C(COc1ccc(Cl)c(F)c1)NC12CCC(NC(=O)c3cc(CO)ccn3)(C1)C2 [Compound 333, N-{4-[2-(4-chloro-3-fluorophenoxy)acetamido]bicyclo[2.1.1]hexan-1-yl}-4-(hydroxymethyl)pyridine-2-carboxamide] | 1000 to 2000
N#CCCc1ccc(C(=O)NC23CC(NC(=O)COc4ccc(Cl)c(F)c4)(C2)C3)nc1 [Compound 335, N-{3-[2-(4-chloro-3-fluorophenoxy)acetamido]bicyclo[1.1.1]pentan-1-yl}-5-(2-cyanoethyl)pyridine-2-carboxamide] | 50 to 250
O=C(COc1ccc(Cl)c(Cl)c1)NC12CC(NC(=O)c3ccc(Cl)cn3)(C1)C2 [Compound 691, 5-chloro-N-{3-[2-(3,4-dichlorophenoxy)acetamido]bicyclo[1.1.1]pentan-1-yl}pyridine-2-carboxamide] | < 50
COc1ccnc(C(=O)NC23CCC(NC(=O)COc4ccc(Cl)c(F)c4)(CC2)C(O)C3)c1 (stereo not shown) [Compound 924, N-{4-[2-(4-chloro-3-fluorophenoxy)acetamido]-3-hydroxybicyclo[2.2.2]octan-1-yl}-4-methoxypyridine-2-carboxamide] | 1000 to 2000
O=C(COc1ccc(Cl)c(F)c1)NC12CCC(NC(=O)c3ccc(-c4ccc(F)cc4)cn3)(CC1)CC2O (stereo not shown) [Compound 939, N-{4-[2-(4-chloro-3-fluorophenoxy)acetamido]-3-hydroxybicyclo[2.2.2]octan-1-yl}-5-(4-fluorophenyl)pyridine-2-carboxamide] | 250 to 1000
CCc1cncc(C(=O)NC23CC(NC(=O)COc4ccc(Cl)c(F)c4)(C2)C3)c1 [Compound 948, N-{3-[2-(4-chloro-3-fluorophenoxy)acetamido]bicyclo[1.1.1]pentan-1-yl}-5-ethylpyridine-3-carboxamide] | < 50
CCc1cncc(C(=O)NC23CC(NC(=O)COc4ccc(Cl)c(Cl)c4)(C2)C3)c1 [Compound 949, N-{3-[2-(3,4-dichlorophenoxy)acetamido]bicyclo[1.1.1]pentan-1-yl}-5-ethylpyridine-3-carboxamide] | < 50
O=C(COc1ccc(Cl)c(F)c1)NC12CCC(NC(=O)c3cnc4cc(F)ccc4n3)(CC1)[C@@H](O)C2 [Compound 950, N-{(2S)-4-[2-(4-chloro-3-fluorophenoxy)acetamido]-2-hydroxybicyclo[2.2.2]octan-1-yl}-6-fluoroquinoxaline-2-carboxamide] | < 50
O=C(COc1ccc(Cl)c(F)c1)NC12CC(NC(=O)c3cnc4cc(F)ccc4n3)(C1)C2 [Compound 951, N-{3-[2-(4-chloro-3-fluorophenoxy)acetamido]bicyclo[1.1.1]pentan-1-yl}-6-fluoroquinoxaline-2-carboxamide] | < 50
O=C(COc1ccc(Cl)c(F)c1)NC12CCC(NC(=O)c3cccc(-c4cccc(F)c4)n3)(CC1)CC2O (stereo not shown) [Compound 952, N-{4-[2-(4-chloro-3-fluorophenoxy)acetamido]-3-hydroxybicyclo[2.2.2]octan-1-yl}-6-(3-fluorophenyl)pyridine-2-carboxamide] | < 50
N#Cc1cnccc1NC12CC(NC(=O)COc3ccc(Cl)c(F)c3)(C1)C2 [Compound 953, 2-(4-chloro-3-fluorophenoxy)-N-{3-[(3-cyanopyridin-4-yl)amino]bicyclo[1.1.1]pentan-1-yl}acetamide] | 50 to 250
O=C(COc1ccc(Cl)c(F)c1)NC12CC(Nc3cccc(-n4ccccc4=O)n3)(C1)C2 [Compound 954, 2-(4-chloro-3-fluorophenoxy)-N-{3-[(2-oxo-2H-[1,2′-bipyridin]-6′-yl)amino]bicyclo[1.1.1]pentan-1-yl}acetamide] | > 2000
O=C(COc1ccc(Cl)c(F)c1)NC12CC(Nc3ccnc(-n4ccnc4)c3)(C1)C2 [Compound 955, 2-(4-chloro-3-fluorophenoxy)-N-(3-{[2-(1H-imidazol-1-yl)pyridin-4-yl]amino}bicyclo[1.1.1]pentan-1-yl)acetamide] | 250 to 1000
O=C(COc1ccc(Cl)c(F)c1)NC12CC(Nc3cccc(N4CCOCC4)n3)(C1)C2 [Compound 957, 2-(4-chloro-3-fluorophenoxy)-N-(3-{[6-(morpholin-4-yl)pyridin-2-yl]amino}bicyclo[1.1.1]pentan-1-yl)acetamide] | 250 to 1000
O=C(COc1ccc(Cl)c(F)c1)NC12CC(Nc3ccc4ncnc(N5CCOCC5)c4c3)(C1)C2 [Compound 958, 2-(4-chloro-3-fluorophenoxy)-N-(3-{[4-(morpholin-4-yl)quinazolin-6-yl]amino}bicyclo[1.1.1]pentan-1-yl)acetamide] | 50 to 250

SMILES | EC50 [nM]
CN1CCN(c2ncnc3ccc(NC45CC(NC(=O)COc6ccc(Cl)c(F)c6)(C4)C5)cc23)CC1 [Compound 959, 2-(4-chloro-3-fluorophenoxy)-N-(3-{[4-(4-methylpiperazin-1-yl)quinazolin-6-yl]amino}bicyclo[1.1.1]pentan-1-yl)acetamide] | > 2000
COC(=O)c1ccc2nccc(NC34CC(NC(=O)COc5ccc(Cl)c(F)c5)(C3)C4)c2c1 [Compound 960, methyl 4-({3-[2-(4-chloro-3-fluorophenoxy)acetamido]bicyclo[1.1.1]pentan-1-yl}amino)quinoline-6-carboxylate] | < 50
NC(=O)c1cccc(NC23CC(NC(=O)COc4ccc(Cl)c(F)c4)(C2)C3)n1 [Compound 961, 6-({3-[2-(4-chloro-3-fluorophenoxy)acetamido]bicyclo[1.1.1]pentan-1-yl}amino)pyridine-2-carboxamide] | 1000 to 2000
O=C(COc1ccc(Cl)c(F)c1)NC12CC(Nc3cc(N4CCCC4)ccn3)(C1)C2 [Compound 962, 2-(4-chloro-3-fluorophenoxy)-N-(3-{[4-(pyrrolidin-1-yl)pyridin-2-yl]amino}bicyclo[1.1.1]pentan-1-yl)acetamide] | 1000 to 2000
O=C(COc1ccc(Cl)c(F)c1)NC12CC(Nc3cc(N4CCOCC4)ccn3)(C1)C2 [Compound 963, 2-(4-chloro-3-fluorophenoxy)-N-(3-{[4-(morpholin-4-yl)pyridin-2-yl]amino}bicyclo[1.1.1]pentan-1-yl)acetamide] | > 2000
COC(=O)c1ccnc(NC23CC(NC(=O)COc4ccc(Cl)c(F)c4)(C2)C3)c1 [Compound 964, methyl 2-({3-[2-(4-chloro-3-fluorophenoxy)acetamido]bicyclo[1.1.1]pentan-1-yl}amino)pyridine-4-carboxylate] | > 2000
CCOC(=O)c1cncc(NC23CC(NC(=O)COc4ccc(Cl)c(F)c4)(C2)C3)c1 [Compound 965, ethyl 5-({3-[2-(4-chloro-3-fluorophenoxy)acetamido]bicyclo[1.1.1]pentan-1-yl}amino)pyridine-3-carboxylate] | 250 to 1000
O=C(COc1ccc(Cl)c(F)c1)NC12CC(Nc3cnc4nccnc4c3)(C1)C2 [Compound 966, 2-(4-chloro-3-fluorophenoxy)-N-{3-[(pyrido[2,3-b]pyrazin-7-yl)amino]bicyclo[1.1.1]pentan-1-yl}acetamide] | 250 to 1000
CN(C(=O)c1cc(C(F)F)no1)C12CCC(NC(=O)COc3ccc(Cl)c(F)c3)(CC1)[C@@H](O)C2 [Compound 967, N-{(3S)-4-[2-(4-chloro-3-fluorophenoxy)acetamido]-3-hydroxybicyclo[2.2.2]octan-1-yl}-3-(difluoromethyl)-N-methyl-1,2-oxazole-5-carboxamide] | 1000 to 2000
Cc1cc(C(=O)N(C)C23CCC(NC(=O)COc4ccc(Cl)c(Cl)c4)(CC2)[C@@H](O)C3)on1 [Compound 968, N-{(3S)-4-[2-(3,4-dichlorophenoxy)acetamido]-3-hydroxybicyclo[2.2.2]octan-1-yl}-N,3-dimethyl-1,2-oxazole-5-carboxamide] | 1000 to 2000
O=C(COc1ccc(Cl)c(F)c1)NC12CCC(NC(=O)c3coc(C(F)F)n3)(CC1)C[C@@H]2O [Compound 969, N-{(3S)-4-[2-(4-chloro-3-fluorophenoxy)acetamido]-3-hydroxybicyclo[2.2.2]octan-1-yl}-2-(difluoromethyl)-1,3-oxazole-4-carboxamide] | < 50
CC(O)c1ncc(C(=O)NC23CCC(NC(=O)COc4ccc(Cl)c(F)c4)(CC2)CC3)s1 (stereo not shown) [Compound 970, N-{4-[2-(4-chloro-3-fluorophenoxy)acetamido]bicyclo[2.2.2]octan-1-yl}-2-(1-hydroxyethyl)-1,3-thiazole-5-carboxamide] | > 2000
O=C(COc1ccc(Cl)c(Cl)c1)NC12CC(NC(=O)c3cc(O)c4cc(Cl)ccc4n3)(C1)C2 [Compound 971, 6-chloro-N-{3-[2-(3,4-dichlorophenoxy)acetamido]bicyclo[1.1.1]pentan-1-yl}-4-hydroxyquinoline-2-carboxamide] | < 50
O=C(COc1ccc(Cl)c(F)c1)NC12CC(NC(=O)c3cc4c(cn3)CCCC4)(C1)C2 [Compound 972, N-{3-[2-(4-chloro-3-fluorophenoxy)acetamido]bicyclo[1.1.1]pentan-1-yl}-5,6,7,8-tetrahydroisoquinoline-3-carboxamide] | 50 to 250
O=C(COc1ccc(Cl)c(F)c1)NC12CCC(NC(=O)c3cnc4cc(C(F)(F)F)ccc4n3)(CC1)C[C@@H]2O [Compound 973, N-{(3S)-4-[2-(4-chloro-3-fluorophenoxy)acetamido]-3-hydroxybicyclo[2.2.2]octan-1-yl}-6-(trifluoromethyl)quinoxaline-2-carboxamide] | < 50
